The term IC50 denotes the concentration that gives 50% inhibition. A high value points to weaker potency in that assay.

Molecules are shown by their SMILES.

The target in the assay is full length MPS1 (Homo sapiens (Human), UniProt P33981). Put plainly: Measurement of inhibition of MPS1 kinase (Caliper EZ reader, fluorescent labelled peptide H236). To be noted: full length MPS1 12.5 nM or 3 nM, peptide H236 5 μM, ATP 10 μM, 60 min at room temperature. In kind it is biochemical.
Chain of full length MPS1 (P33981 whole entry): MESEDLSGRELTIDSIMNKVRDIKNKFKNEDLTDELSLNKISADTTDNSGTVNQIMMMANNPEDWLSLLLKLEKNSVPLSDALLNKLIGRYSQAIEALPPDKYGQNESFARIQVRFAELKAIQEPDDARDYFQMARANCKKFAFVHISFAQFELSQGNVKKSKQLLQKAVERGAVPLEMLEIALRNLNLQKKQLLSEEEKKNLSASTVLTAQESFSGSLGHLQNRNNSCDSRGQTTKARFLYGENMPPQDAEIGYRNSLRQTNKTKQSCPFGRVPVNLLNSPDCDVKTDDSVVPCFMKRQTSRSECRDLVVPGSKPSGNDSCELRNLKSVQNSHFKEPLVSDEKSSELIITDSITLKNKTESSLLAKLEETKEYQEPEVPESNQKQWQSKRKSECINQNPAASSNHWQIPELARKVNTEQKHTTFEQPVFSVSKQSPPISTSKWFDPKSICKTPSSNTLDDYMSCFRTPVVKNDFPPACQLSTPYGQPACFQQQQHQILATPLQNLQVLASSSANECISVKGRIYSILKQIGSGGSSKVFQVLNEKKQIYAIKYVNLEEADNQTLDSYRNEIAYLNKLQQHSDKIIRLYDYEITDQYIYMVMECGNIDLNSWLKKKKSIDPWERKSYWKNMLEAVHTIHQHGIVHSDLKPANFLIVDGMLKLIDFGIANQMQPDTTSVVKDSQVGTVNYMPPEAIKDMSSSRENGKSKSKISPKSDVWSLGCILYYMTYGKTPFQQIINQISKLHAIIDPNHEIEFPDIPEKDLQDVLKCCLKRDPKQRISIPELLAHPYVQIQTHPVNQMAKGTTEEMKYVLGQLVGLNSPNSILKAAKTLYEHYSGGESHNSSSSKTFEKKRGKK
In turn, `CCOc1cc(-c2nncn2C)ccc1Nc1cc2cc(-c3cnn(CC4(O)CCC4)c3)ccc2cn1` [Example 88, 1-((4-(3-((2-Ethoxy-4-(4-methyl-4H-1,2,4-triazol-3-yl)phenyl)amino)isoquinolin-6-yl)-1H-pyrazol-1-yl)methyl)cyclobutanol] gave a half-inhibitory concentration (IC50) of 7 nM.

Compound `COc1cc(C(=O)N2CC(OC)C2)ccc1Nc1cc2cc(-c3cnn(CC4(O)CCC4)c3)ccc2cn1` [Example 87, (4-((6-(1-((1-Hydroxycyclobutyl)methyl)-1H-pyrazol-4-yl)isoquinolin-3-yl)amino)-3-methoxy-phenyl)(3-methoxyazetidin-1-yl)methanone] came in with a half-inhibitory concentration (IC50) of 8 nM.

`CCn1cc(-c2ccc3cnc(Nc4ccc(-c5cnc(C)n5C)cc4OC)cc3c2)cn1` [Example 10, N-(4-(1,2-dimethyl-1H-imidazol-5-yl)-2-methoxyphenyl)-6-(1-ethyl-1H-pyrazol-4-yl)isoquinolin-3-amine] had a 50% inhibitory concentration (IC50) of 7 nM.

The compound `COc1cc(-c2cnc(C)n2C)ccc1Nc1cc2cc(-c3cnn(CC(F)(F)F)c3)ccc2cn1` [Example 44, N-(4-(1,2-Dimethyl-1H-imidazol-5-yl)-2-methoxyphenyl)-6-(1-(2,2,2-trifluoroethyl)-1H-pyrazol-4-yl)isoquinolin-3-amine] registered an IC50 of 4 nM.

The compound `COc1cc(C(=O)N2CC(OC)C2)ccc1Nc1cc2cc(-c3cnn(C4COCC4O)c3)ccc2cn1` (racemic) [Example 82, (4-((6-(1-(4-Hydroxytetrahydrofuran-3-yl)-1H-pyrazol-4-yl)isoquinolin-3-yl)amino)-3-methoxyphenyl)(3-methoxyazetidin-1-yl)methanone] yielded an IC50 of 5 nM.

Compound `COc1cc(-c2cnc(C#N)n2C)ccc1Nc1cc2cc(-c3cnn(CC(C)(C)O)c3)ccc2cn1` [Example 84, 5-(4-((6-(1-(2-Hydroxy-2-methylpropyl)-1H-pyrazol-4-yl)isoquinolin-3-yl)amino)-3-methoxyphenyl)-1-methyl-1H-imidazole-2-carbonitrile] yielded a half-inhibitory concentration (IC50) of 5 nM.

`COc1cc(-c2cnc(C)n2C)cnc1Nc1cc2cc(-c3cnn(CC(C)(C)O)c3)ccc2cn1` [Example 57, 1-(4-(3-((5-(1,2-Dimethyl-1H-imidazol-5-yl)-3-methoxypyridin-2-yl)amino)isoquinolin-6-yl)-1H-pyrazol-1-yl)-2-methylpropan-2-ol] registered an IC50 of 3 nM.

As for `COc1cc(C(=O)N2CC(OC)C2)ccc1Nc1cc2cc(-c3cnn(CC(O)C(F)(F)F)c3)ccc2cn1` (racemic) [Example 75, (3-Methoxy-4-((6-(1-(3,3,3-trifluoro-2-hydroxypropyl)-1H-pyrazol-4-yl)isoquinolin-3-yl)amino)-phenyl)(3-methoxyazetidin-1-yl)methanone], the IC50 was 3 nM.

`COc1cc(-c2cnc(C)n2C)ccc1Nc1cc2cc(-c3cnn(C4CCOCC4)c3)ccc2cn1` [Example 39, N-(4-(1,2-Dimethyl-1H-imidazol-5-yl)-2-methoxyphenyl)-6-(1-(tetrahydro-2H-pyran-4-yl)-1H-pyrazol-4-yl)isoquinolin-3-amine]: half-maximal inhibition (IC50) was put at 6 nM.

For the compound `COc1cc(-c2cnn(C)c2)ccc1Nc1cc2cc(-c3cnn(CC(C)(C)O)c3)ccc2cn1` [Example 52, 1-(4-(3-(2-Methoxy-4-(1-methyl-1H-pyrazol-4-yl)phenylamino)isoquinolin-6-yl)-1H-pyrazol-1-yl)-2-methylpropan-2-ol], the concentration for half-maximal inhibition (IC50) is 4 nM.

`COc1cc(-c2cnc(C)n2C)ccc1Nc1cc2cc(-c3cnn(CC(C)O)c3)ccc2cn1` (racemic) [Example 38, 1-(4-(3-((4-(1,2-Dimethyl-1H-imidazol-5-yl)-2-methoxyphenyl)amino)isoquinolin-6-yl)-1H-pyrazol-1-yl)propan-2-ol] came in with an IC50 of 2 nM.

Compound `COc1cc(-c2cnc(C)n2C)ccc1Nc1cc2cc(-c3cnn(CC4COC(C)(C)O4)c3)ccc2cn1` (racemic) [Example 40, 6-(1-((2,2-Dimethyl-1,3-dioxolan-4-yl)methyl)-1H-pyrazol-4-yl)-N-(4-(1,2-dimethyl-1H-imidazol-5-yl)-2-methoxyphenyl)isoquinolin-3-amine] had a 50% inhibitory concentration (IC50) of 6 nM.

`COc1cc(C(=O)N2CC(OC)C2)ccc1Nc1cc2cc(-c3cnn(C(C)C(C)(C)O)c3)ccc2cn1` (racemic) [Example 76, (4-((6-(1-(3-Hydroxy-3-methylbutan-2-yl)-1H-pyrazol-4-yl)isoquinolin-3-yl)amino)-3-methoxyphenyl)(3-methoxyazetidin-1-yl)methanone] came in with a half-inhibitory concentration (IC50) of 5 nM.

`COCc1c(-c2ccc(Nc3cc4cc(-c5cnn(CC(C)(C)O)c5)ccc4cn3)c(OC)c2)cnn1C` [Example 51, 1-(4-(3-(2-Methoxy-4-(5-(methoxymethyl)-1-methyl-1H-pyrazol-4-yl)phenylamino)isoquinolin-6-yl)-1H-pyrazol-1-yl)-2-methylpropan-2-ol]: the half-maximal inhibitory concentration (IC50) stood at 4 nM.

The compound `Cc1nnc(-c2ccc(Nc3cc4cc(-c5cnn(CC(C)(C)O)c5)ccc4cn3)c(Cl)c2)o1` [Example 77, 1-(4-(3-((2-Chloro-4-(5-methyl-1,3,4-oxadiazol-2-yl)phenyl)amino)isoquinolin-6-yl)-1H-pyrazol-1-yl)-2-methylpropan-2-ol] came in with an IC50 of 23 nM.

As for `COc1cc(C(=O)N2CC(OC)C2)ccc1Nc1cc2cc(-c3cnn(CC(O)CO)c3)ccc2cn1` (racemic) [Example 81, (4-((6-(1-(2,3-Dihydroxypropyl)-1H-pyrazol-4-yl)isoquinolin-3-yl)amino)-3-methoxyphenyl)(3-methoxyazetidin-1-yl)methanone], it took 3 nM to reach half-maximal inhibition (IC50).

For `COCC1CN(C(=O)c2ccc(Nc3cc4cc(-c5cnn(CC(C)(C)O)c5)ccc4cn3)c(OC)c2)C1` [Example 86, (4-((6-(1-(2-Hydroxy-2-methylpropyl)-1H-pyrazol-4-yl)isoquinolin-3-yl)amino)-3-methoxy-phenyl)(3-(methoxymethyl)azetidin-1-yl)methanone], the IC50 was 7 nM.

Turning to `COCC(O)Cn1cc(-c2ccc3cnc(Nc4ccc(C(=O)N5CC(OC)C5)cc4OC)cc3c2)cn1` (racemic) [Example 78, (4-((6-(1-(2-Hydroxy-3-methoxypropyl)-1H-pyrazol-4-yl)isoquinolin-3-yl)amino)-3-methoxyphenyl)(3-methoxyazetidin-1-yl)methanone], the IC50 came out at 17 nM.

For `COc1cc(-c2cnc(C)n2C)ccc1Nc1cc2cc(-c3cnn(CC4CCC4)c3)ccc2cn1` [Example 28, 6-(1-(Cyclobutylmethyl)-1H-pyrazol-4-yl)-N-(4-(1,2-dimethyl-1H-imidazol-5-yl)-2-methoxyphenyl)isoquinolin-3-amine], the IC50 stood at 3 nM.

For the compound `COc1cc(-c2nnc3n2CCNC3)ccc1Nc1cc2cc(-c3cnn(CC(C)(C)O)c3)ccc2cn1` [Example 112, 1-(4-(3-(2-Methoxy-4-(5,6,7,8-tetrahydro-[1,2,4]triazolo[4,3-a]pyrazin-3-yl)phenylamino)-isoquinolin-6-yl)-1H-pyrazol-1-yl)-2-methylpropan-2-ol], the half-maximal inhibitory concentration (IC50) was 2 nM.

For the compound `COc1nc(-c2cnc(C)n2C)ccc1Nc1cc2cc(-c3cnn(CC(C)(C)O)c3)ccc2cn1` [Example 56, 1-(4-(3-(6-(1,2-Dimethyl-1H-imidazol-5-yl)-2-methoxypyridin-3-ylamino)isoquinolin-6-yl)-1H-pyrazol-1-yl)-2-methylpropan-2-ol], the IC50 amounted to 3 nM.
